The results in this text go back to patent publication US6455528B1, “Piperazine compounds and medicinal use thereof” (Mitsubishi Pharma Corporation, priority 1997, dated 2002).

The compound `CC(=O)NCc1ccc(CN2CCN(c3ccc(F)cc3Cl)CC2)cc1` [Example 44, N-(4-((4-(2-Chloro-4-fluorophenyl)piperazin-1-yl)methyl)phenylmethyl)acetamide] registered a melting point of 255 to 257 °C.
For `CC(=O)NC(C)c1ccc(CN2CCN(c3ccc(F)cc3F)CC2)cc1` (stereo not shown) [Example 49, N-(1-(4-((4-(2,4-Difluorophenyl)piperazin-1-yl)methyl)phenyl)ethyl)acetamide], the melting point was 109 to 111 °C.
With `CC(=O)NC(C)(C)c1ccc(CN2CCN(c3ccccc3)CC2)cc1` [Example 50, N-(1-Methyl-1-(4-((4-phenylpiperazin-1-yl)methyl)phenyl)ethyl)acetamide] the figure was 110 to 111 °C; with `CCC(NC(C)=O)c1ccc(CN2CCN(c3ccccc3)CC2)cc1` (stereo not shown) [Example 53, N-(1-(4-((4-Phenylpiperazin-1-yl)methyl)phenyl)propyl)acetamide], 109 to 110.5 °C; with `CCC(NC(C)=O)c1ccc(CN2CCN(c3ccc(F)cc3)CC2)cc1` (stereo not shown) [Example 54, N-(1-(4-((4-(4-Fluorophenyl)piperazin-1-yl)methyl)phenyl)propyl)acetamide], 113 to 114 °C.
Under `CCC(NC(C)=O)c1ccc(CN2CCN(c3ccc(F)cc3F)CC2)cc1` (stereo not shown) [Example 55, N-(1-(4-((4-(2,4-Difluorophenyl)piperazin-1-yl)methyl)phenyl)propyl)acetamide] stands 137 to 138 °C; under `CCC(CC)(NC(C)=O)c1ccc(CN2CCN(c3ccccc3)CC2)cc1` [Example 56, N-(1-Ethyl-1-(4-((4-phenylpiperazin-1-yl)methyl)phenyl)propyl)acetamide], 139 to 140 °C.
Turning to `CC(=O)NC1(c2ccc(CN3CCN(c4ccccc4)CC3)cc2)CC1` [Example 57, N-(1-(4-((4-Phenylpiperazin-1-yl)methyl)-phenyl)cyclopropyl)acetamide], the melting point lay in the range of 129 to 139.5 °C.
`CC(=O)NCc1ccc(C(C)N2CCN(c3ccc(F)cc3)CC2)cc1` (stereo not shown) [Example 59, N-(4-(1-(4-(4-Fluorophenyl)piperazin-1-yl)ethyl)phenylmethyl)acetamide] came in with a melting point of 128 to 130 °C.
With `CC(=O)NC(C)(C)c1ccc(C(C)N2CCN(c3ccc(F)cc3)CC2)cc1` (stereo not shown) [Example 60, N-(1-(4-(1-(4-(4-Fluorophenyl)piperazin-1-yl)ethyl)phenyl)-1-methylethyl)acetamide] the figure was 156 to 157 °C; with `CC(=O)NC(C)(C)c1ccc(C(C)N2CCN(c3ccccc3)CC2)cc1` (stereo not shown) [Example 62, N-(1-(4-(1-(4-Phenylpiperazin-1-yl)ethyl)-phenyl)-1-methylethyl)acetamide], 169 to 171 °C.
Under `CC(=O)NC1(c2ccc(CN3CCN(c4ccc(F)cc4)CC3)cc2)CC1` [Example 65, N-(1-(4-((4-(4-Fluorophenyl)piperazin-1-yl)methyl)phenyl)cyclopropyl)acetamide] stands 124 to 126 °C.
Regarding `CC(=O)NC1(c2ccc(CN3CCN(c4ccc(F)cc4F)CC3)cc2)CC1` [Example 66, N-(1-(4-((4-(2,4-Difluorophenyl)-piperazin-1-yl)methyl)phenyl)cyclopropyl)acetamide], the melting point lay within 124 to 125 °C.
Compound `CC(=O)NC1(c2ccc(C(C)N3CCN(c4ccc(F)cc4)CC3)cc2)CC1` (stereo not shown) [Example 67, N-(1-(4-(1-(4-(4-Fluorophenyl)piperazin-1-yl)ethyl)phenyl)cyclopropyl)acetamide] gave a melting point of 149 to 150 °C.
For `CC(=O)NC(C)c1ccc(CN2CCN(c3ncccn3)CC2)cc1` (stereo not shown) [Example 69, N-(1-(4-((4-(Pyrimidin-2-yl)piperazin-1-yl)methyl)phenyl)ethyl)acetamide], the melting point is 124 to 126 °C.
In the case of `CC(=O)NC1(c2ccc(C(C)N3CCN(c4ncccn4)CC3)cc2)CC1` (stereo not shown) [Example 70, N-(1-(4-(1-(4-(Pyrimidin-2-yl)piperazin-1-yl)ethyl)phenyl)cyclopropyl)acetamide], the melting point was 124 to 125 °C.
